Reference: patent EP0645379A2, “Benzoylacetylene derivatives” (priority 1993, dated 1995)
Counter-ions that a name gives are not always drawn. Like-named read-outs stand apart in the source and are kept apart here.

Key:
[1] = test system: KB cell; assay: Cancer cell growth inhibitory activity (KB cells, MTT colorimetric determination); assay type: cell-based, human
Description: In order to evaluate tyrosine kinase inhibitory activity and cancer cell growth inhibitory activity for tyrosine kinase inhibitor of the invention, tests were carried out in partially purified human EGF (epidermal growth factor) receptor tyrosine kinase activity detemination system and in a cell incubation system using human cancer cells. Furthermore, in order to compare and evaluate strength of inhibitory activity, relatively higher active ones amongst known tyrosine kinase inhibitors disclosed in patents or literatures were tested simultaneously.
Accordingly, the KB cell was used to evaluate the effect of test compounds on the growth of cultured cancer cells.
KB cells were plated on a 96-well dish (2.5x 10^3 cell/well) and cultured for 24 hours at 37 ° C under 5% C02 atmosphere in DMEM:F12 (1:1) medium containing 10% FCS, 50 µg/ml penicillin, and 50µg/ml streptomycin. To the culture medium was added a test compound dissolved in DMSO (DMSO final concentration < 0.1%), and the cells were cultured for three days under the same conditions. The test compound was exchanged every 24 hours together with the culture medium.
The amount of living cells were measured by calorimetric determination at wave lengths of 550 nm and 650 nm after developing colour by MTT (3-[4,5-Dimethylthiazol-2-yl]-2,5-diphenyltetrazolium bromide), in accordance with the method of Michael C. Alley et al. (Cancer Research 48 589, 1988).
Cancer cell growth inhibitory activity (CCGIA) was determined according to the following equation. [formula] Symbols "a" and "b" represent the colorimetric values determined in the cancer cell growth assay with and without the test compounds, respectively.

[2] = target: T1, partially purified human EGF (epidermal growth factor) receptor tyrosine kinase (Homo sapiens, UniProt P00533); assay: biochemical
T1 construct: The cell membrane fraction, a partially purified EGF receptor, was used as an enzyme source; endogenous in cells; host or cells: A431 human epidermoid carcinoma cells (membrane fraction, 10000xg pellet)

[3] = Homo sapiens, 72 h; Table-3; KB cells, three days culture, MTT; 3) fumarate, 4) hydrochloride
[4] = Table-2; […]; 3) fumarate, 4) hydrochloride, read-out: Tyrosine kinase inhibitory activity (IC50)
[5] = Table-2 continued; […]; 4) hydrochloride, read-out: Tyrosine kinase inhibitory activity (IC50, μ)

T1 sequence (P01133 971-1023): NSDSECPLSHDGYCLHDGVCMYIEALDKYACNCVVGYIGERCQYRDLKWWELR
T1 sequence (P00533 25-1210): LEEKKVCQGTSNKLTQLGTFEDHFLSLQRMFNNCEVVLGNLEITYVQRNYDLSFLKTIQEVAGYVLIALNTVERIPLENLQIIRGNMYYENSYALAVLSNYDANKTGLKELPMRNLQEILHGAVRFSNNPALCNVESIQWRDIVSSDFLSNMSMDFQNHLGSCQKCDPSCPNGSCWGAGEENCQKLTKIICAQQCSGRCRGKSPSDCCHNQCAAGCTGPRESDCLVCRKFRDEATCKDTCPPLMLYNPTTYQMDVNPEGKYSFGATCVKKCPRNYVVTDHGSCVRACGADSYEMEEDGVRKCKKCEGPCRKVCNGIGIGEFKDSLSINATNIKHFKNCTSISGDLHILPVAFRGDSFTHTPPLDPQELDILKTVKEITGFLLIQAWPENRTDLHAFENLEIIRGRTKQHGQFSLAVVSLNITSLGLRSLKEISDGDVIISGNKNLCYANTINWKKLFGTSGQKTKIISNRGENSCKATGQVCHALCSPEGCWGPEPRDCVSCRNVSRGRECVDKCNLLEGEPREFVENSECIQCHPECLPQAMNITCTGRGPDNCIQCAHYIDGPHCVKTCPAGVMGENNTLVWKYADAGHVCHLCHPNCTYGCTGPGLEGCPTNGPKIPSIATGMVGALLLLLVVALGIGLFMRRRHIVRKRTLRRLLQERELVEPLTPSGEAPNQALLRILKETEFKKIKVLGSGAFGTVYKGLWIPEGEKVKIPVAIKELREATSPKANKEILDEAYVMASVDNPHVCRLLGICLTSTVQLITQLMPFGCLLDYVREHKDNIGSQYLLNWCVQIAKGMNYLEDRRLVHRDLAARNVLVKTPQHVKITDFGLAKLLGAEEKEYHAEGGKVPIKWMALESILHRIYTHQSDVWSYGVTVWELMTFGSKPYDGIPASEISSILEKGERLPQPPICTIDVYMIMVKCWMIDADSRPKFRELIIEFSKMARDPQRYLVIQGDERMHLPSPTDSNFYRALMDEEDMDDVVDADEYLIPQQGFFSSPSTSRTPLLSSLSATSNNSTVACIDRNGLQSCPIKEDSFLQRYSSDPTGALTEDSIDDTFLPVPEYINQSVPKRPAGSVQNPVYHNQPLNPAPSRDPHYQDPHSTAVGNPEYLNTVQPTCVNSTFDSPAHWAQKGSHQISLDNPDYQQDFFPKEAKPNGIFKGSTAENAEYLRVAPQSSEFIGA

CC(C)(C#CC(=O)c1ccc(Cl)c(Cl)c1)N1CCCCC1 [compound 480]
IC50 [1, 3]: 510 nM

CN(C)c1ccc(C(=O)C#CC(C)(C)N2CCCCC2)cc1 [compound 485]
IC50 [1, 3]: 690 nM

COc1ccc(C(=O)C#CC(C)(C)N)cc1OC [compound 395, 4-amino-1-(3,4-dimethoxy)phenyl-1-oxo-4-methyl-2-pentyne hydrochloride]
IC50 [2, 4]: 39 nM

CCN(CC)CC#CC(=O)c1ccc(OC)c(OC)c1 [compound 222]
IC50 [1, 3]: 840 nM | IC50 [2, 5]: 13 nM

CC(C)(C#CC(=O)c1ccc(S(C)(=O)=O)cc1)N1CCCCC1 [compound 666]
IC50 [1, 3]: 2200 nM | IC50 [2, 5]: 2600 nM

CCN(CC)C(C)(C)C#CC(=O)c1ccc(OC)c(OC)c1 [compound 410]
IC50 [1, 3]: 690 nM | IC50 [2, 4]: 730 nM

COc1ccc(C(=O)C#CC(C)(C)NC(=O)OCc2ccccc2)cc1OC [compound 619]
IC50 [1, 3]: 1100 nM | IC50 [2, 4]: 660 nM

COc1ccc(C(=O)C#CC(C)(C)Nc2ccccc2)cc1OC [compound 643]
IC50 [1, 3]: 1100 nM | IC50 [2, 5]: 120 nM

CCOc1cc(C=C(C#N)C(N)=O)cc(CSc2ccccc2)c1O [[drawing] 2)]
IC50 [1, 3]: 52000 nM | IC50 [2, 4]: 3200 nM

COc1ccc(C(=O)C#CC(C)(C)Nc2cccnc2)cc1OC [compound 646]
IC50 [1, 3]: 2800 nM | IC50 [2, 5]: 300 nM

COc1ccc(C(=O)C#CC(C)(C)NCC(C)C)cc1OC [compound 644]
IC50 [1, 3]: 2800 nM | IC50 [2, 5]: 66 nM

C#CC(=O)c1ccc(OC)c(OC)c1 [compound 2]
IC50 [1, 3]: 13000 nM

COc1ccc(C(=O)C#CC(C)(C)N(C)C)cc1OC [compound 402]
IC50 [1, 3]: 930 nM | IC50 [2, 5]: 330 nM

COc1ccc(C(=O)C#Cc2ccccn2)cc1OC [compound 69]
IC50 [1, 3]: 1520 nM | IC50 [2, 4]: 240 nM

COc1ccc(C(=O)C#CC(C)(C)C)cc1OC [compound 8]
IC50 [1, 3]: 2200 nM

COc1ccc(C(=O)C#CC(C)(C)NC(=O)OCc2ccc[n+]([O-])c2)cc1OC [compound 651]
IC50 [1, 3]: 3500 nM | IC50 [2, 4]: 660 nM

COc1ccc(C(=O)C#CC(C)(C)NS(=O)(=O)c2ccc(OC)c(OC)c2)cc1OC [compound 652]
IC50 [1, 3]: 1300 nM

COc1ccc(C(=O)C#C[Si](C)(C)C)cc1OC [compound 633]
IC50 [1, 3]: 14500 nM

COc1ccc(C(=O)C#CCN2CCCCC2)cc1OC [compound 287]
IC50 [1, 3]: 1600 nM | IC50 [2, 4]: 470 nM

COc1ccc(C(=O)C#CC(C)(NCCCO)C(C)C)cc1OC (centres unmarked) [compound 654]
IC50 [1, 3]: 1000 nM | IC50 [2, 5]: 940 nM

CCN(CC)C(C)(C#CC(=O)c1ccc(OC)c(OC)c1)C(C)C (centres unmarked) [compound 455]
IC50 [1, 3]: 560 nM | IC50 [2, 4]: 2900 nM

COc1ccc(C(=O)C#CC(C)(C)Nc2c(C)cccc2C)cc1OC [compound 645]
IC50 [1, 3]: 3400 nM | IC50 [2, 5]: 2200 nM

COc1ccc(C(=O)C#CC(C)(C)NCCc2c[nH]c3ccccc23)cc1OC [compound 648]
IC50 [1, 3]: 1600 nM | IC50 [2, 5]: 37 nM

COc1ccc(C(=O)C#CCNC(=O)OC(C)(C)C)cc1OC [compound 388]
IC50 [1, 3]: 1100 nM | IC50 [2, 5]: 69 nM

COc1ccc(C(=O)C#CC(O)(C(C)C)C(C)C)cc1OC [compound 627]
IC50 [1, 3]: 680 nM

CC(C)(C)c1cc(C(=O)C#CC(C)(C)N2CCCCC2)cc(C(C)(C)C)c1O [compound 667]
IC50 [1, 3]: 120 nM

COc1ccc(C(=O)C#Cc2ccccc2)cc1OC [compound 19]
IC50 [1, 3]: 2650 nM | IC50 [2, 4]: 670 nM

CCN(CC)C1(C#CC(=O)c2ccc(OC)c(OC)c2)CCCCC1 [compound 555]
IC50 [1, 3]: 460 nM | IC50 [2, 4]: 1700 nM

CC(C)(C#CC(=O)c1ccc(F)cc1)N1CCCCC1 [compound 483]
IC50 [1, 3]: 340 nM

COc1ccc(C(=O)C#CC(C)(C)N2CCCCC2)cc1OC [compound 477]
IC50 [1, 3]: 640 nM | IC50 [2, 4]: 1300 nM

COc1ccc(C(=O)C#CC(C)(C)O)cc1OC [compound 613]
IC50 [1, 3]: 1410 nM | IC50 [2, 4]: 150 nM

COc1ccc(C(=O)C#CC(C)(C)N2CCCCC2)cc1 [compound 476]
IC50 [1, 3]: 550 nM

COc1ccc(C(=O)C#CC(C)(C(C)C)N(C)CCCO)cc1OC (centres unmarked) [compound 655]
IC50 [1, 3]: 2100 nM

CC(C)(C#CC(=O)c1ccc2c(c1)OCO2)N1CCCCC1 [compound 482]
IC50 [1, 3]: 300 nM

COc1ccc(C(=O)C#CCN2C(C)(C)CCCC2(C)C)cc1OC [compound 313]
IC50 [1, 3]: 1000 nM | IC50 [2, 4]: 180 nM

COc1ccc(C(=O)C#CC(C)(C)NC(=O)OCc2cccnc2)cc1OC [compound 649]
IC50 [1, 3]: 1100 nM | IC50 [2, 4]: 960 nM

COc1ccc(C(=O)C#CC(C)(C)NC(=O)OCc2ccc[n+](C)c2)cc1OC [compound 650]
IC50 ([1]; Table-3; KB cells, three days culture, MTT; 3) fumarate, 4) hydrochloride): 6500 nM

COc1ccc(C(=O)C#CC(C)(C)NCc2ccccc2)cc1OC [compound 647]
IC50 [1, 3]: 790 nM | IC50 [2, 5]: 190 nM

N#CC(=Cc1ccc(O)c(O)c1)C(=O)Nc1ccccc1 [[drawing] 1)]
IC50 [1, 3]: 17000 nM

CC(C)(C#CC(=O)c1cc2c(cc1[N+](=O)[O-])OCO2)N1CCCCC1 [compound 501]
IC50 [1, 3]: 1480 nM

COc1ccc(C(=O)C#CC(=O)Nc2ccccc2)cc1OC [compound 197]
IC50 [2, 4]: 1000 nM

COc1ccc(C(=O)C#CCN(C(C)C)C(C)C)cc1OC [compound 242]
IC50 [1, 3]: 2100 nM | IC50 [2, 4]: 35 nM

COc1cc(C(=O)C#CC(C)(C)N2CCCCC2)cc2c1OCO2 [compound 500]
IC50 [1, 3]: 480 nM | IC50 [2, 4]: 350 nM

COc1ccc(OC)c(C(=O)C#CC(C)(C)N2CCCCC2)c1 [compound 665]
IC50 [1, 3]: 270 nM | IC50 [2, 5]: 1400 nM

COc1cccc(C(=O)C#CC(C)(C)N2CCCCC2)c1OC [compound 664]
IC50 [1, 3]: 680 nM | IC50 [2, 5]: 930 nM

CSc1ccc(C(=O)C#CC(C)(C)N2CCCCC2)cc1 [compound 484]
IC50 [1, 3]: 410 nM | IC50 [2, 4]: 1300 nM

COc1ccc(C(=O)C#CC(C)(C)Nc2cccc(Cl)c2)cc1OC [compound 642]
IC50 [1, 3]: 1500 nM | IC50 [2, 5]: 96 nM
